Measured values taken from patent publication US10807994B2, “Heterocyclic compounds and uses thereof” (NUVATION BIO INC., priority 2017, dated 2020).

Columns and labels:
WEE1 kinase enzyme = WEE1 kinase enzyme (Homo sapiens (Human), UniProt P30291); experiment: WEE1 IC50 determination, LanthaScreen Terbium labeled TR-FRET kinase assay; format: biochemical; settings: WEE1 enzyme 1 nM
Protocol: IC50 values of compounds against WEE1 kinase enzyme were determined by LanthaScreen™ Terbium Labeled TR-FRET assay. Kinase assays were performed in 1× kinase buffer (# PV6135, Invitrogen, Life Technologies Grand Island, N.Y.) where total reaction volume was 10 μl in low-volume 384-well plates (#4511, Corning). Serially diluted compounds (3-fold) were incubated with WEE1 Enzyme (1 nM) (# PR7373A, Invitrogen, Life Technologies Grand Island, N.Y.) for 10 min, following which a mixture of ATP […] (# A1852, Sigma, St-Louis, Mo.) and fluorescent-PolyGT substrate (200 nM) (# PV3610, Invitrogen, Life Technologies Grand Island, N.Y.) was added and incubated in dark at room temperature for 1 h. After 1 h, 10 μl stop solution containing Terbium labeled antibody (4 nM) (# PV3529, Invitrogen, Life Technologies Grand Island, N.Y.) and EDTA (# E5134, Sigma, St-Louis, Mo.) (20 mM) in TR-FRET dilution buffer (# PV3574, Invitrogen, Life Technologies Grand Island, N.Y.) was added. Readings were taken in a Synergy Neo Plate reader (BioTek, Winooski) at single excitation of 340 nm and Dual emission at 495 nm and 520 nm respectively.
The % activity of test samples was calculated as (Sample−Min)*100/(Max−Min). [Max: DMSO control, complete reaction with enzyme & DMSO and Min: No enzyme & DMSO]. Percent inhibition (100-% activity) was fitted to the “four-parameter logistic model” in XLfit for determination of IC50 values.

A427 cells = experiment: Cytotoxicity assay (resazurin), A427 cells, 72 hr; format: cell-based; settings: Homo sapiens, A-427, read-out: Cell Viability A427 IC50
Protocol: A549 (CCL-185; ATCC) and A427 (HTB-53; ATCC), both lung epithelial cell lines were seeded in their respective medium (DMEM/MEM, 10569044/41090101; Gibco) at a cell count of 1500 cells per 100 μL per well in a 96 well edge plate (167425; ThermoFisher). Cells were allowed to grow at 37° C. for 24 hr in 5% CO2 environment (culture conditions) in a Nuaire incubator (humidified). Serially diluted test compounds (100 μL) within the desired testing concentration ranges were added to the culture plate were further incubated in culture conditions for 72 hr and 96 hr for A427 and A549 respectively. The experiment was terminated at the designated incubation time by replacing the medium with 100 μL of 1 mM of resazurin (R7017; Sigma) prepared in respective culture medium, and the plates were further incubated in culture conditions for 4-6 hr. Fluorescence was recorded using a multimodal plate reader (Biotek Synergy Neo) at an excitation wavelength of 535 nm and emission wavelength of 590 nm to obtain relative fluorescence units. Data analysis was done by subtracting the background fluorescence (only medium blank) value from each reading and then normalizing with the vehicle control (DMSO treated cells) to obtain percent survival/proliferation. Percent survival was then subtracted by 100 to get the percent inhibition of proliferation which was used to calculate IC50 values. Potency of compounds in other cell lines (As-Pc-1, Panc-10.05, MDAMB231, A172) was determined in an analogous manner.

Sequence of WEE1 kinase enzyme (P30291 whole entry): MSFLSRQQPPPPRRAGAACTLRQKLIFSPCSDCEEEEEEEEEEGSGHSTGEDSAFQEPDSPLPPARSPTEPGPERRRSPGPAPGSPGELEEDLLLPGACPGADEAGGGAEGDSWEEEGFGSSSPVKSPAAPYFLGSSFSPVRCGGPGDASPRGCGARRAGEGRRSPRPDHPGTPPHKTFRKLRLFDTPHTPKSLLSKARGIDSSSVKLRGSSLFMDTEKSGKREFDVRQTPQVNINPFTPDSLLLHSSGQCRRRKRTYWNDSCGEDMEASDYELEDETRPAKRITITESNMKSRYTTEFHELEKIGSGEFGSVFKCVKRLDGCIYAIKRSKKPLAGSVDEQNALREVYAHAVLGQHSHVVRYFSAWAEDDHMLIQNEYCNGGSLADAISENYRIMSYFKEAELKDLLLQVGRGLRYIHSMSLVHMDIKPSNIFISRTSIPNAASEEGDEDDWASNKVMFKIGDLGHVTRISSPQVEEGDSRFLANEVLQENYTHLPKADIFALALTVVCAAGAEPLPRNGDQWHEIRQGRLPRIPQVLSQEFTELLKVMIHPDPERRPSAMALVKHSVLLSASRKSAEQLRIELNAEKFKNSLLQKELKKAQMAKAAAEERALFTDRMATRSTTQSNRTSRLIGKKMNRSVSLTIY

Row | IC50 (WEE1 kinase enzyme) [µM] | SMILES | IC50 (A427 cells) [µM]
1 | 3.26 | O=C1c2cnc(Nc3ccc(N4CCOCC4)cc3)nc2OCN1c1c(Cl)cccc1Cl [Example 1.2] | –
2 | 0.279 | CC(C)(O)C(=O)N1Cc2cc(Nc3ncc4c(n3)OCN(c3c(Cl)cccc3Cl)C4=O)ccc2C(C)(C)C1 [Example 1.6] | –
3 | 0.074 | O=C(CO)N1CCc2ccc(Nc3ncc4c(n3)OCN(c3c(Cl)cccc3Cl)C4=O)cc2C1 [Example 1.7] | –
4 | 0.162 | O=C(CO)N1CCN(c2ccc(Nc3ncc4c(n3)OCN(c3c(Cl)cccc3Cl)C4=O)cc2)CC1 [Example 1.8] | –
5 | 0.193 | O=C1c2cnc(Nc3ccc(N4CCNCC4)cc3)nc2OCN1c1ccccc1Cl [Example 1.9] | –
6 | 0.837 | CN1CCN(c2ccc(Nc3ncc4c(n3)OCN(c3ccc(F)cc3Cl)C4=O)cc2)CC1 [Example 1.11] | –
7 | 0.144 | O=C1c2cnc(Nc3ccc(N4CCNCC4CO)cc3)nc2OCN1c1c(Cl)cccc1Cl (centres unmarked) [Example 1.13] | –
8 | 0.173 | CC1(C)CNCc2cc(Nc3ncc4c(n3)OCN(c3ccc(F)cc3Cl)C4=O)ccc21 [Example 1.14] | –
9 | 1.56 | CCS(=O)(=O)N1CCN(c2ccc(Nc3ncc4c(n3)OCN(c3c(Cl)cccc3Cl)C4=O)cc2)CC1 [Example 1.15] | –
10 | 0.156 | CC1Oc2nc(Nc3ccc(N4CCNCC4)cc3)ncc2C(=O)N1c1c(Cl)cccc1Cl (centres unmarked) [Example 1.17] | –
11 | 0.192 | CCN1CCN(c2ccc(Nc3ncc4c(n3)OCN(c3c(Cl)cccc3Cl)C4=O)cc2)CC1 [Example 1.18] | –
12 | 0.206 | CC(C)N1CCN(c2ccc(Nc3ncc4c(n3)OCN(c3c(Cl)cccc3Cl)C4=O)cc2)CC1 [Example 1.19] | –
13 | 1.39 | O=C1c2cnc(Nc3ccc(N4CCN(C5CC5)CC4)cc3)nc2OCN1c1c(Cl)cccc1Cl [Example 1.21] | –
14 | 0.03 | CCN1Cc2cc(Nc3ncc4c(n3)OCN(c3c(Cl)cccc3Cl)C4=O)ccc2C(C)(C)C1 [Example 1.22] | –
15 | 0.607 | O=C1NCCc2ccc(Nc3ncc4c(n3)OCN(c3c(Cl)cccc3Cl)C4=O)cc21 [Example 1.23] | –
16 | 0.068 | CN1CCN(c2ccc(Nc3ncc4c(n3)OCN(c3c(F)cccc3Cl)C4=O)cc2)CC1 [Example 1.25] | –
17 | 0.088 | CC1CNCCN1c1ccc(Nc2ncc3c(n2)OCN(c2c(Cl)cccc2Cl)C3=O)cc1 (centres unmarked) [Example 1.26] | –
18 | 0.035 | CC1(C)CNCc2cc(Nc3ncc4c(n3)OCN(c3c(F)cccc3Cl)C4=O)ccc21 [Example 1.28] | –
19 | 30 | CN1CCN(c2ccc(Nc3ccc4c(n3)OCN(c3c(Cl)cccc3Cl)C4=O)cc2)CC1 [Example 1.31, 3-(2,6-dichlorophenyl)-7-(4-(4-methylpiperazin-1-yl)phenylamino)-2H-pyrido[3,2-e][1,3]oxazin-4(3H)-one] | –
20 | > 5 | CC1CCN(c2ccc(Nc3ncc4c(n3)OCN(c3c(Cl)cccc3Cl)C4=O)cc2)CC1 [Example 1.59, 3-(2,6-dichlorophenyl)-7-(4-(4-methylpiperidin-1-yl)phenylamino)-2H-pyrimido[5,4-e][1,3]oxazin-4(3H)-one] | 14
21 | 0.11 | O=C1c2cnc(Nc3ccc(N4CCCNCC4)cc3)nc2OCN1c1c(Cl)cccc1Cl [Example 1.61] | 4.12
22 | 0.123 | CC1Oc2nc(Nc3ccc(N4CCNCC4)c(CO)c3)ncc2C(=O)N1c1c(Cl)cccc1Cl (centres unmarked) [Example 1.62] | 2.8
23 | > 5 | O=C1c2cnc(Nc3ccc(N4CCC(F)(F)CC4)cc3)nc2OCN1c1c(Cl)cccc1Cl [Example 1.63] | –
24 | > 5 | O=C1c2cnc(Nc3ccc4cnccc4c3)nc2OCN1c1c(Cl)cccc1Cl [Example 1.64] | –
25 | 1.33 | O=C1c2cnc(Nc3ccc4c(c3)CN(CC(F)F)CC4)nc2OCN1c1c(Cl)cccc1Cl [Example 1.65] | –
26 | 0.777 | O=C1c2cnc(Nc3ccc4[nH]ncc4c3)nc2OCN1c1c(Cl)cccc1Cl [Example 1.87] | 25.4
27 | 0.047 | O=C1c2cnc(Nc3ccc(N4CCNC(CO)C4)cc3)nc2OCN1c1c(Cl)cccc1Cl (centres unmarked) [Example 1.96] | 5.89

Row | IC50 (WEE1 kinase enzyme) [µM] | SMILES | IC50 (A427 cells) [µM]
28 | > 5 | CN(c1ccc(N2CCNCC2)cc1)c1ncc2c(n1)OCN(c1c(Cl)cccc1Cl)C2=O [Example 1.104] | 27.8
29 | 0.11 | CN(C)Cc1c[nH]c2cc(Nc3ncc4c(n3)OCN(c3c(Cl)cccc3Cl)C4=O)ccc12 [Example 1.107] | 7.7
30 | 0.501 | O=C1c2cnc(Nc3ccc4c(c3)NCCC4)nc2OCN1c1c(Cl)cccc1Cl [Example 1.121] | 7.33
31 | 0.066 | C[C@H]1CNCCN1c1ccc(Nc2ncc3c(n2)OCN(c2c(Cl)cccc2Cl)C3=O)cc1 [Example 1.172] | 4.9
32 | 0.087 | C[C@@H]1CN(c2ccc(Nc3ncc4c(n3)OCN(c3c(Cl)cccc3Cl)C4=O)cc2)CCN1 [Example 1.173] | 3.32
33 | 0.032 | C[C@@H]1CN(c2ccc(Nc3ncc4c(n3)OCN(c3c(Cl)cccc3Cl)C4=O)cc2F)CCN1 [Example 1.174] | 3.4
34 | 0.066 | O=C1c2cnc(Nc3ccc4[nH]ccc4c3)nc2OCN1c1c(Cl)cccc1Cl [Example 1.175] | 22
35 | 0.105 | Cc1cc(Nc2ncc3c(n2)OCN(c2c(Cl)cccc2Cl)C3=O)cc(C)c1N1CCNCC1 [Example 1.176] | 3.25
36 | 0.032 | CN(C)C1CCN(c2ccc(Nc3ncc4c(n3)OCN(c3c(Cl)cccc3Cl)C4=O)cc2)CC1 [Example 1.223] | 1.66
37 | 0.232 | O=C1c2cnc(Nc3ccc4c(c3)CCCN4)nc2OCN1c1c(Cl)cccc1Cl [Example 1.224] | 12.1
38 | 0.282 | CCN(CC)CCOc1ccc(Nc2ncc3c(n2)OCN(c2c(Cl)cccc2Cl)C3=O)cc1 [Example 1.225] | 2.16
39 | 0.188 | O=C1c2cnc(Nc3ccc4c(c3)NCCN4)nc2OCN1c1c(Cl)cccc1Cl [Example 1.226] | 5.36
40 | 0.127 | CC1CN(c2ccc(Nc3ncc4c(n3)OCN(c3c(Cl)cccc3Cl)C4=O)cc2Cl)CCN1 (centres unmarked) [Example 1.228] | 1.46
41 | 0.185 | C[C@H]1CN(c2ccc(Nc3ncc4c(n3)OCN(c3c(Cl)cccc3Cl)C4=O)cc2Cl)CCN1 [Example 1.229] | 2.25
42 | 0.561 | CN1CCN(c2ccc(Nc3ncc4c(n3)SCN(c3c(Cl)cccc3Cl)C4=O)cc2)CC1 [Example 1.230] | 4.94
43 | 0.142 | CC1(C)CNCc2cc(Nc3ncc4c(n3)SCN(c3c(Cl)cccc3Cl)C4=O)ccc21 [Example 1.231] | 2.23
44 | 0.273 | CN(C)C1CCN(c2ccc(Nc3ncc4c(n3)SCN(c3c(Cl)cccc3Cl)C4=O)cc2)CC1 [Example 1.232] | 1.12
45 | 0.165 | O=C1c2cnc(Nc3ccc4c(c3)CNCC4)nc2SCN1c1c(Cl)cccc1Cl [Example 1.233] | 7.21
46 | 0.202 | O=C1c2cnc(Nc3ccc4c(c3)CCNC4)nc2SCN1c1c(Cl)cccc1Cl [Example 1.234] | 4.84
47 | 0.111 | Cc1cc(Nc2ncc3c(n2)SCN(c2c(Cl)cccc2Cl)C3=O)ccc1N1CCNCC1 [Example 1.235] | 2.9
48 | 0.335 | O=C1c2cnc(Nc3ccc(N4CCNCC4)c(Cl)c3)nc2SCN1c1c(Cl)cccc1Cl [Example 1.236] | 1.77
49 | 0.045 | CC1(C)CNCc2cc(Nc3ncc4c(n3)SCN(c3c(F)cccc3Cl)C4=O)ccc21 [Example 1.238] | 5.29
50 | 0.508 | CN(C)C1CCN(c2ccc(Nc3ncc4c(n3)SCN(c3c(Cl)cccc3Cl)C4=O)cc2C#N)CC1 [Example 1.239] | 0.765
51 | 0.303 | CN(C)C1CCN(c2ccc(Nc3ncc4c(n3)SCN(c3c(Cl)cccc3Cl)C4=O)cc2Cl)CC1 [Example 1.240] | 1.64
52 | 0.095 | CN1Cc2cc(Nc3ncc4c(n3)SCN(c3c(Cl)cccc3Cl)C4=O)ccc2C(C)(C)C1 [Example 1.241] | 3.49
53 | 0.34 | C[C@@H]1CN(c2ccc(Nc3ncc4c(n3)OCN(c3c(Cl)cccc3Cl)C4=O)cc2Cl)CCN1 [Example 1.919] | –
